Test results from patent US20100255580A1, “Differentiation of Human Embryonic Stem Cells” (LIFESCCAN, INC., priority 2007, published 2010).

Tested on: H9 embryonic stem cells
Assay type: cell-based, human
Conditions: low serum, on MATRIGEL
Procedure: Controls for each group included cells plated on […]-coated dishes and cultured in MEF-conditioned medium or cells plated on MEFs and cultured in ES medium. All groups contained three biological replicates and each biological replicate was repeated on two separate gene chips.
Sample preparation, hybridization, and image analysis were performed according to the Affymetrix Human Genome U133 Plus 2.0 Array. Following normalization and a log transformation, data analysis was performed using OmniViz® software (MA) and […] (VizXLabs, WA). Significant differences in gene expression between the samples were evaluated using analysis of variance and an F-test with adjusted P-value (Benjamini and
Hochberg correction) of ≦b 0.05. Only genes with a present call in at least one group were included in the analysis.

In the case of “Activin A: a member of the TGFβ superfamily; R&D Systems; Group 2 = Activin A (100 ng/ml)”, the “log intensity, H2A histone family, member X” value is reported as 1.371, the “log intensity, H. sapiens skeletal embryonic myosin light chain 1 (MLC1)” value is reported as 0.6901 and the “log intensity, HT016 mRNA” value is reported as 0.2188. For the same substance, the “log intensity, Homo sapiens nudix (nucleoside diphosphate linked moiety X)-type motif (r1198)” value was 3.915, the “log intensity, Human DNA sequence from clone RP4-781L3 on chromosome 1p34.3-36.11” value was 2.828 and the “log intensity, Human DNA sequence from clone RP11-446H13 on chromosome 10” value was −0.8894. For the same substance, the “log intensity, Human MLC1emb gene for embryonic myosin alkaline light chain, promoter and exon 1” value was 1.3489, the “log intensity, Human clone 23826 mRNA sequence” value was 1.808 and the “log intensity, Human embryonic myosin alkali light chain (MLC1)” value was 1.942. For the same substance, the “log intensity, Human extracellular matrix protein 1 (ECM1)” value was 0.6348, the “log intensity, Human mRNA for pro-alpha 1 (II) collagen 3end C-term.” value was 0.8598 and the “log intensity, Human rho GDI mRNA” value was 0.01936. For the same substance, the “log intensity, KIAA0127 gene product (KIAA0127)” value was 2.052, the “log intensity, KIAA0346 protein” value was −1.347 and the “log intensity, KIAA0418 gene product” value was −0.6776. For the same substance, the “log intensity, KIAA0761 protein” value was −2.096, the “log intensity, KIAA0882 protein” value was 2.056 and the “log intensity, KIAA0918 protein” value was −1.397. The “log intensity, KIAA1415 protein” value was 0.1859, the “log intensity, KIAA1511 protein” value was 0.6203 and the “log intensity, Kruppel-like factor 8 (KLF8)” value was 0.3261. The “log intensity, LIM homeobox protein 1 (LHX1)” value was −0.7717, the “log intensity, LYST-interacting protein LIP3” value was −0.6821 and the “log intensity, MAD (mothers against decapentaplegic, Drosophila) homolog 6 (MADH6)” value was 0.9175. For the same substance, the “log intensity, MYC-associated zinc finger protein (purine-binding transcription factor) (MAZ)” value was −0.05557, the “log intensity, Novel human mRNA from chromosome 22” value was −0.5337 and the “log intensity, PNAS-145 mRNA” value was 2.85. The “log intensity, PRO1957 mRNA” value was 1.689, the “log intensity, PTPRF interacting protein, binding protein 2 (liprin beta 2)” value was −1.92 and the “log intensity, Pig10 (PIG10)” value was 0.1295. The “log intensity, SG2NA beta isoform” value was −1.156, the “log intensity, Similar to B9 protein, clone MGC: 11339” value was 1.439 and the “log intensity, Similar to RIKEN cDNA C330013D18 gene, clone MGC: 11226” value was 0.08747. For the same substance, the “log intensity, Similar to lipase protein, clone MGC: 2843” value was −1.161, the “log intensity, X75208 H. sapiens HEK2 mRNA for protein tyrosine kinase receptor” value was −1.367 and the “log intensity, adaptor-related protein complex 3, beta 2 subunit (AP3B2)” value was −0.2083. The “log intensity, adenylate cyclase 8 (brain) (ADCY8)” value was −1.3408, the “log intensity, alpha 2,8-sialyltransferase” value was −1.105 and the “log intensity, aminolevulinate, delta-, dehydratase, clone MGC: 5057” value was 1.3099. For the same substance, the “log intensity, annexin A6 (ANXA6), transcript variant 1” value was 3.89, the “log intensity, apolipoprotein A-II (APOA2)” value was −1.102 and the “log intensity, apolipoprotein C-I (APOC1)” value was 3.25. For the same substance, the “log intensity, arrestin, beta 1 (ARRB1), transcript variant 1” value was −0.1588, the “log intensity, bHLH factor Hes4 (LOC57801)” value was 0.4782 and the “log intensity, beta3GalNAcT-1 mRNA for globoside synthase, clone: type 2” value was −2.733. For the same substance, the “log intensity, bone morphogenetic protein 2 (BMP2)” value was 2.045, the “log intensity, bone morphogenetic protein 5 (BMP5)” value was −0.6099 and the “log intensity, bromodomain and PHD finger containing, 3” value was −2.8472. The “log intensity, c-mer proto-oncogene tyrosine kinase (MERTK)” value was 1.79, the “log intensity, cDNA FLJ11390 fis, clone HEMBA1000561” value was −1.129 and the “log intensity, cDNA FLJ13221 fis, clone NT2RP4002075” value was 0.2828. The “log intensity, cDNA FLJ13392 fis, clone PLACE1001280” value was −1.902, the “log intensity, cDNA FLJ13810 fis, clone THYRO1000279” value was −2.924 and the “log intensity, cDNA FLJ30081 fis, clone BGGI12000693” value was 0.6779. The “log intensity, cDNA FLJ34035 fis, clone FCBBF2004788” value was −3.58, the “log intensity, cDNA FLJ36116 fis, clone TESTI2022338” value was 3.026 and the “log intensity, cDNA: FLJ22731 fis, clone HSI15841” value was −2.309. The “log intensity, cDNA: FLJ22808 fis, clone KAIA2925” value was −0.3674, the “log intensity, cDNA: FLJ23067 fis, clone LNG04993” value was −2.256 and the “log intensity, calmegin (CLGN)” value was −0.1043. The “log intensity, cardiac ankyrin repeat protein (CARP)” value was −0.002291, the “log intensity, cartilage linking protein 1” value was 0.8794 and the “log intensity, caspase-like apoptosis regulatory protein 2 (clarp)” value was 0.4342. For the same substance, the “log intensity, chemokine receptor CXCR4 mRNA” value was 2.306, the “log intensity, cleft lip and palate associated transmembrane protein 1, clone MGC: 10593” value was 1.316 and the “log intensity, clone FLC1492 PRO3121 mRNA” value was −0.3. For the same substance, the “log intensity, clone HB-2 mRNA sequence” value was −0.5039, the “log intensity, clone IMAGE: 3509274, mRNA, partial cds” value was 0.4937 and the “log intensity, clone IMAGE: 4047715, mRNA” value was −2.508. For the same substance, the “log intensity, clone MGC: 14801” value was 2.039, the “log intensity, clone MGC: 24252 IMAGE: 3932604” value was −1.533 and the “log intensity, clone TUA8 Cri-du-chat region mRNA” value was 0.09218. For the same substance, the “log intensity, collagen, type V, alpha 1” value was 1.5875, the “log intensity, complement component 5 (C5)” value was −1.896 and the “log intensity, core histone macroH2A2.2 (MACROH2A2)” value was 1.673. The “log intensity, cystatin C (amyloid angiopathy and cerebral hemorrhage) (CST3)” value was 2.086, the “log intensity, deiodinase, iodothyronine, type III (DIO3)” value was −0.1369 and the “log intensity, dickkopf (Xenopus laevis) homolog 1 (DKK1)” value was 0.9815. The “log intensity, dual specificity phosphatase 4, clone MGC: 3713” value was 2.115, the “log intensity, dynein, axonemal, light polypeptide 4 (DNAL4)” value was 0.4583 and the “log intensity, dystrophin (muscular dystrophy, Duchenne and Becker types) (DMD), transcript variant Dp427p2” value was 1.404. The “log intensity, ectodermal dysplasia 1, anhidrotic (ED1)” value was 0.7966, the “log intensity, elongation of very long chain fatty acids (FEN1Elo2, SUR4Elo3, yeast)-like 2 (ELOVL2)” value was 0.09998 and the “log intensity, endothelin receptor type A (EDNRA), mRNA” value was 0.763. For the same substance, the “log intensity, endothelin receptor type A (r1027)” value was −1.834, the “log intensity, enolase 2, (gamma, neuronal) (ENO2)” value was 2.606 and the “log intensity, eomesodermin (Xenopus laevis) homolog (EOMES)” value was 2.659. The “log intensity, erythrocyte membrane protein band 4.9 (dematin) (EPB49)” value was −0.3066, the “log intensity, fasciculation and elongation protein zeta 1 (zygin I) (FEZ1), transcript variant 1” value was 1.864 and the “log intensity, forkhead box F2 (FOXF2)” value was −1.545. For the same substance, the “log intensity, gelsolin (amyloidosis, Finnish type) (GSN)” value was 1.6198, the “log intensity, glucose-6-phosphate transporter (G6PT) gene, G6PT-Dt allele” value was −0.1935 and the “log intensity, glutathione S-transferase A2 (GSTA2)” value was −3.106. The “log intensity, glycoprotein M6A” value was 0.2744, the “log intensity, guanylate cyclase activator 1B (retina) (GUCA1B)” value was −0.7142 and the “log intensity, heparan sulfate proteoglycan 2 (perlecan)” value was −2.533. The “log intensity, hexabrachion (tenascin C, cytotactin) (HXB)” value was 3.969, the “log intensity, high mobility group protein-R” value was 1.047 and the “log intensity, hypothetical protein BC017868 (LOC159091)” value was −0.2902. For the same substance, the “log intensity, hypothetical protein DKFZp434F0318” value was −1.115, the “log intensity, hypothetical protein DKFZp434F2322” value was 0.07058 and the “log intensity, hypothetical protein DKFZp564B052” value was 1.478. The “log intensity, hypothetical protein FLJ10312” value was 1.595, the “log intensity, hypothetical protein FLJ11155” value was −3.346 and the “log intensity, hypothetical protein FLJ11560” value was −0.04411. For the same substance, the “log intensity, hypothetical protein FLJ12538 similar to ras-related protein RAB17” value was 1.706, the “log intensity, hypothetical protein FLJ12666 (r758)” value was 0.2158 and the “log intensity, hypothetical protein FLJ12666 (r998)” value was 2.341. The “log intensity, hypothetical protein FLJ12838” value was 1.491, the “log intensity, hypothetical protein FLJ21195 similar to protein related to DAC and cerberus” value was −1.385 and the “log intensity, hypothetical protein FLJ22471” value was 0.9038. For the same substance, the “log intensity, hypothetical protein FLJ23091” value was −0.7609, the “log intensity, hypothetical protein FLJ23514” value was 0.5646 and the “log intensity, hypothetical protein FLJ32835” value was −0.5956. For the same substance, the “log intensity, hypothetical protein MGC2865, clone MGC: 20246” value was −2.431, the “log intensity, insulin-like growth factor binding protein 6 (IGFBP6)” value was 2.6126 and the “log intensity, keratin 19 (KRT19)” value was 3.806. For the same substance, the “log intensity, kidney-specific membrane protein NX-17” value was 1.919, the “log intensity, lipase mRNA” value was −2.2131 and the “log intensity, lymphocyte antigen 6 complex, locus E (LY6E)” value was 0.8664. The “log intensity, mRNA for KIAA0876 protein” value was −0.432, the “log intensity, mRNA for KIAA1161 protein” value was 0.7818 and the “log intensity, mRNA for MSX-2” value was 0.4072. For the same substance, the “log intensity, mRNA for protein-tyrosine kinase” value was 0.161, the “log intensity, mRNA; cDNA DKFZp434E082” value was 1.364 and the “log intensity, mRNA; cDNA DKFZp434K0621” value was 0.5814. For the same substance, the “log intensity, mRNA; cDNA DKFZp434P228” value was 1.768, the “log intensity, mRNA; cDNA DKFZp547H236” value was 1.372 and the “log intensity, mRNA; cDNA DKFZp564K1672” value was 4.494. For the same substance, the “log intensity, mRNA; cDNA DKFZp586G2120” value was −1.809, the “log intensity, mRNA; cDNA DKFZp586L0120” value was −2.726 and the “log intensity, mRNA; cDNA DKFZp762H185” value was 2.837. The “log intensity, mandaselin long form” value was −0.1481, the “log intensity, matrix metalloproteinase 15 (membrane-inserted) (MMP15)” value was −0.2985 and the “log intensity, microseminoprotein, beta-(MSMB)” value was −2.379. The “log intensity, mitogen-activated protein kinase 10 (MAPK10)” value was 0.648, the “log intensity, nuclear factor of kappa light polypeptide gene enhancer in B-cells inhibitor, alpha” value was 2.915 and the “log intensity, nuclear receptor subfamily 0, group B, member 1 (NR0B1) (r534)” value was −1.928. The “log intensity, nuclear receptor subfamily 0, group B, member 1 (NR0B1) (r1079)” value was −0.2138.
